Article PMC9828467 (Chemmedchem, 2022)

Columns and labels:
[1] = molecular target: Plasmin from human plasma (Homo sapiens, UniProt P00747); assay: Plasmin inhibition assay with chromogenic substrate S-2251; format: biochemical; details: ratio to Ki of monovalent AMB
[2] = system: plasmin; details: cited from earlier work

Chain of Plasmin from human plasma (P00747 581-810 limits assumed): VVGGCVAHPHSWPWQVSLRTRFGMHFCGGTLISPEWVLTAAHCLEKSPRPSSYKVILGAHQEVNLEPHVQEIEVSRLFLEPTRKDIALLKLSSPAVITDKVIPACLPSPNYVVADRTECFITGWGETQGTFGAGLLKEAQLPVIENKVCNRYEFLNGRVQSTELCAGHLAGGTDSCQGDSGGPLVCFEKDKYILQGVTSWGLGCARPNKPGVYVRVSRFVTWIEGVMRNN
Chain of Plasmin from human plasma (P00747 98-580 partner limits assumed): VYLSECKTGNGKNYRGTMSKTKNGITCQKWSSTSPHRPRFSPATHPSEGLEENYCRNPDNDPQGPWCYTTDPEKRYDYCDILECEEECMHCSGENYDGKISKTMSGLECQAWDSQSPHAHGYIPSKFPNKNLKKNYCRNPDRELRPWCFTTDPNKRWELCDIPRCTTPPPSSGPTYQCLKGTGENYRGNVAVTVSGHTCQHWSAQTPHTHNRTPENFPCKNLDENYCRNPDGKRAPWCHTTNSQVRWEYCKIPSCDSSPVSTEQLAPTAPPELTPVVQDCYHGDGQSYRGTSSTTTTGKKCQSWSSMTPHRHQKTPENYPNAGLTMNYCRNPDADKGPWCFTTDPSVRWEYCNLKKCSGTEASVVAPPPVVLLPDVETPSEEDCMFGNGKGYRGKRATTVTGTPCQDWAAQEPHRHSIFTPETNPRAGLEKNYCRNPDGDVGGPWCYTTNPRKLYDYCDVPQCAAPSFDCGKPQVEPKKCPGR

rp: relative potency = Ki AMB/Ki multi [1] | Structure (SMILES) | Fold stronger plasmin inhibitor than the strongest monovalent benzamidine [2] [fold]
27.6 | N=C(N)c1ccc(CNC(=O)CCOCCOCCOCCOCCNC(=O)CN(CC(=O)NCCOCCOCCOCCOCCC(=O)NCc2ccc(C(=N)N)cc2)CC(=O)NCCOCCOCCOCCOCCC(=O)NCc2ccc(C(=N)N)cc2)cc1 [Tri‐PEG4−AMB] | –
2.7 | COCCOCCOCCOCCOCCOCCOCCOCCOCCOCCOCCOCCOCCOCCOCCOCCOCCOCCOCCOCCOCCOCCOCCOCCOCCC(=O)NCc1ccc(C(=N)N)cc1 [m‐dPEG24−AMB] | –
3.9 | COCCOCCOCCOCCOCCOCCOCCOCCOCCOCCOCCOCCOCCC(=O)NCc1ccc(C(=N)N)cc1 [m‐dPEG12−AMB] | –
664.3 | N=C(N)c1ccc(OCCCCCOc2ccc(C(=N)N)cc2)cc1 [Pentamidine, reference compound] | 13
